Results from ChEMBL document CHEMBL4800728, “Data for DCP probe JNJ-54119936” (2021).

Columns and labels:
[1] = molecular target: T1, GABA-A receptor; anion channel (Homo sapiens) (UniProt P14867+P47870+P18507+P28472+P48169+Q99928+Q9UN88+P34903+O00591+O14764+Q8N1C3+P18505+P78334+P47869+P31644+Q16445); experiment: GABA (non selective) CEREP screen; assay type: protein-complex assay; conditions: Compound concentration 1.0 uM
[2] = molecular target: Fibroblast growth factor receptor 1 (Homo sapiens) (UniProt P11362); experiment: FGFR1 Invitrogen kinase panel; conditions: Compound concentration 10.0 uM
[3] = molecular target: Muscarinic acetylcholine receptor M3 (Homo sapiens) (UniProt P20309); experiment: M3 (h) CEREP screen
[4] = molecular target: 5-hydroxytryptamine receptor 6 (Homo sapiens) (UniProt P50406); conditions: Compound concentration 10.0 uM
[5] = molecular target: Proto-oncogene tyrosine-protein kinase receptor Ret (Homo sapiens) (UniProt P07949); experiment: Ret Invitrogen kinase panel; conditions: Compound concentration 10.0 uM
[6] = molecular target: RAC-alpha serine/threonine-protein kinase (Homo sapiens) (UniProt P31749); experiment: PKBalpha Invitrogen kinase panel; conditions: Compound concentration 10.0 uM
[7] = molecular target: Mu-type opioid receptor (Homo sapiens) (UniProt P35372); conditions: Compound concentration 10.0 uM
[8] = molecular target: Peroxisome proliferator-activated receptor alpha (Homo sapiens, UniProt Q07869); experiment: (§1) PPARalpha In-house nuclear receptor screen
[9] = molecular target: Peroxisome proliferator-activated receptor alpha (Homo sapiens) (UniProt Q07869); experiment: as §1; conditions: Compound concentration 3.0 uM
[10] = molecular target: Cyclin-dependent kinase 1/cyclin B (Homo sapiens) (UniProt P06493+P14635+Q8WWL7+O95067); experiment: CDK1/cyclinB Invitrogen kinase panel; assay type: protein-complex assay; conditions: Compound concentration 10.0 uM
[11] = molecular target: Mitogen-activated protein kinase 1 (Homo sapiens) (UniProt P28482); experiment: ERK2 Invitrogen kinase panel; conditions: Compound concentration 10.0 uM
[12] = molecular target: GABA-A receptor; anion channel (Rattus norvegicus) (UniProt O09028+P15431+P18506+P18508+P19969+P20236+P23574+P23576+P28471+P28473+P30191+P62813+P63079+P63138+Q91ZM7+Q9ES14); conditions: Compound concentration 10.0 uM
[13] = molecular target: Muscarinic acetylcholine receptor M2 (Homo sapiens) (UniProt P08172); conditions: Compound concentration 10.0 uM
[14] = molecular target: Glycogen synthase kinase-3 alpha (Homo sapiens) (UniProt P49840); experiment: GSK3alpha Invitrogen kinase panel; conditions: Compound concentration 10.0 uM
[15] = molecular target: 5-hydroxytryptamine receptor 5A (Homo sapiens) (UniProt P47898); conditions: Compound concentration 10.0 uM
[16] = molecular target: Insulin receptor (Homo sapiens) (UniProt P06213); experiment: INSR Invitrogen kinase panel; conditions: Compound concentration 10.0 uM
[17] = molecular target: Epidermal growth factor receptor (Homo sapiens) (UniProt P00533); experiment: EGFR Invitrogen kinase panel; conditions: Compound concentration 10.0 uM
[18] = molecular target: Aurora kinase A (Homo sapiens) (UniProt O14965); experiment: Aurora_A Invitrogen kinase panel; conditions: Compound concentration 10.0 uM
[19] = molecular target: Casein kinase II subunit alpha (Homo sapiens) (UniProt P68400); experiment: CK2alpha1 Invitrogen kinase panel; conditions: Compound concentration 10.0 uM
[20] = molecular target: Sodium-dependent noradrenaline transporter (Homo sapiens) (UniProt P23975); conditions: Compound concentration 10.0 uM
[21] = molecular target: Alpha-2B adrenergic receptor (Homo sapiens, UniProt P18089); experiment: GPCRScan assay: inhibition of Alpha2B; design: radioligand conc. used [nm] 1.5 – 2.0, parental cells HEKT
[22] = molecular target: Nuclear receptor ROR-beta (Homo sapiens) (UniProt Q92753); experiment: ThermoFluor Binding Assay (RORB)
[23] = molecular target: D(2) dopamine receptor (Homo sapiens) (UniProt P14416); experiment: D2S (h) CEREP screen; conditions: Compound concentration 1.0 uM
[24] = molecular target: Alpha-2B adrenergic receptor (Homo sapiens) (UniProt P18089); conditions: Compound concentration 10.0 uM
[25] = molecular target: Ephrin type-A receptor 2 (Homo sapiens) (UniProt P29317); experiment: EphA2 Invitrogen kinase panel; conditions: Compound concentration 10.0 uM
[26] = molecular target: Sigma intracellular receptor 2 (Homo sapiens, UniProt Q5BJF2); conditions: Compound concentration 10.0 uM
[27] = molecular target: Histamine H1 receptor (Homo sapiens) (UniProt P35367); experiment: H1 (h) CEREP screen; conditions: Compound concentration 1.0 uM
[28] = molecular target: T1, GABA-A receptor; anion channel (Homo sapiens); experiment: Cl- channel CEREP screen; assay type: protein-complex assay
[29] = molecular target: Receptor-type tyrosine-protein kinase FLT3 (Homo sapiens) (UniProt P36888); experiment: Flt3 Invitrogen kinase panel; conditions: Compound concentration 10.0 uM
[30] = molecular target: T2, Peroxisome proliferator-activated receptor delta (Homo sapiens) (UniProt Q03181); experiment: PPARdelta Indigo Bioscience nuclear receptor screen
T2 sequence (whole entry): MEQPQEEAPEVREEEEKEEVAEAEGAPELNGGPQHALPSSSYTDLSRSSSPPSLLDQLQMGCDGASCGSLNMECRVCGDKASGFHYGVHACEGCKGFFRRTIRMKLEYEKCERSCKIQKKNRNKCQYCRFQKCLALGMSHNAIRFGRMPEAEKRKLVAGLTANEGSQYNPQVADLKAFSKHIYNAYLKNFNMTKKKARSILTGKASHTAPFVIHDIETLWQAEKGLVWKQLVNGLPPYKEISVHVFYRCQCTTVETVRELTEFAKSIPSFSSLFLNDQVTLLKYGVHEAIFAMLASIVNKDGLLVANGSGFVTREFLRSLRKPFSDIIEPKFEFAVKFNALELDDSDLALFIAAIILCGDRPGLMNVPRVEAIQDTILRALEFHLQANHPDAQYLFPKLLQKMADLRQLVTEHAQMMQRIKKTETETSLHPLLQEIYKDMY

[31] = molecular target: Rho-associated protein kinase 1 (Homo sapiens) (UniProt Q13464); experiment: ROCK_I Invitrogen kinase panel; conditions: Compound concentration 10.0 uM
Rho-associated protein kinase 1 (Homo sapiens), sequence (Q13464 2-1354 limits assumed): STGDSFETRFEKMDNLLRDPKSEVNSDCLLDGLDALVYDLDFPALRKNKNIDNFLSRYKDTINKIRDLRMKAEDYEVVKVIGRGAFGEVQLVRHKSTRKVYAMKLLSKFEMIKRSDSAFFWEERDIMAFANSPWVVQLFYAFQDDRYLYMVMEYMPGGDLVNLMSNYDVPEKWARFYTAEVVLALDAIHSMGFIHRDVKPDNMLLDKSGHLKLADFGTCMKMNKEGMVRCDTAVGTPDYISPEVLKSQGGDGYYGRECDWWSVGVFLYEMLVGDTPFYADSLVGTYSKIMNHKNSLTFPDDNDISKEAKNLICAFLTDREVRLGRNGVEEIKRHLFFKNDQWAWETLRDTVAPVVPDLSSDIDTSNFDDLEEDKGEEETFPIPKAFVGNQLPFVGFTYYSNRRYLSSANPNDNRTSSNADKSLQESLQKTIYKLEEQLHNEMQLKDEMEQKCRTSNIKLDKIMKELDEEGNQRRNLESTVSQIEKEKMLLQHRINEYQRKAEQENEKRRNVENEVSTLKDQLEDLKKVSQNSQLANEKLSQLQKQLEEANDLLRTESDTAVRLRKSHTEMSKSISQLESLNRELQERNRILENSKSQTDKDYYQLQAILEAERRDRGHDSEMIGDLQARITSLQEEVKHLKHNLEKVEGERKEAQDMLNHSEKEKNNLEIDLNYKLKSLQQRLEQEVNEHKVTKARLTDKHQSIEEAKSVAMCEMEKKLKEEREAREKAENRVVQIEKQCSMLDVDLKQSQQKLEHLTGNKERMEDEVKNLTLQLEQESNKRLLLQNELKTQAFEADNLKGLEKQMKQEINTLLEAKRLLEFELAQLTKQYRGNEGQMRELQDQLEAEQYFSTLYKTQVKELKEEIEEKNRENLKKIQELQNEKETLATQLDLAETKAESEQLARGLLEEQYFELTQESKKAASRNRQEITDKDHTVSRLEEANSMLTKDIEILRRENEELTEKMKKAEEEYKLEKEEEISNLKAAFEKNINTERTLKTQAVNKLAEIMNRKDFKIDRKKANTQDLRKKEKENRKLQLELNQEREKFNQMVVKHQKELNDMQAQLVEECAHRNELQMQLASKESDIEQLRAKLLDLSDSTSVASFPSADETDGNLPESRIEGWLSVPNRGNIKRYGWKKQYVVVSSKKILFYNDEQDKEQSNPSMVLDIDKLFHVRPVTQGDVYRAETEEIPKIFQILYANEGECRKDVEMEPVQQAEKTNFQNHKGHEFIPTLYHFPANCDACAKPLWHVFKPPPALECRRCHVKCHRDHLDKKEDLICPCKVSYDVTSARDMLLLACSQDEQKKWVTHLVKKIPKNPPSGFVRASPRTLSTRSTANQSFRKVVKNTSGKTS

Muscarinic acetylcholine receptor M3 (Homo sapiens), sequence (P20309 whole entry, looked up): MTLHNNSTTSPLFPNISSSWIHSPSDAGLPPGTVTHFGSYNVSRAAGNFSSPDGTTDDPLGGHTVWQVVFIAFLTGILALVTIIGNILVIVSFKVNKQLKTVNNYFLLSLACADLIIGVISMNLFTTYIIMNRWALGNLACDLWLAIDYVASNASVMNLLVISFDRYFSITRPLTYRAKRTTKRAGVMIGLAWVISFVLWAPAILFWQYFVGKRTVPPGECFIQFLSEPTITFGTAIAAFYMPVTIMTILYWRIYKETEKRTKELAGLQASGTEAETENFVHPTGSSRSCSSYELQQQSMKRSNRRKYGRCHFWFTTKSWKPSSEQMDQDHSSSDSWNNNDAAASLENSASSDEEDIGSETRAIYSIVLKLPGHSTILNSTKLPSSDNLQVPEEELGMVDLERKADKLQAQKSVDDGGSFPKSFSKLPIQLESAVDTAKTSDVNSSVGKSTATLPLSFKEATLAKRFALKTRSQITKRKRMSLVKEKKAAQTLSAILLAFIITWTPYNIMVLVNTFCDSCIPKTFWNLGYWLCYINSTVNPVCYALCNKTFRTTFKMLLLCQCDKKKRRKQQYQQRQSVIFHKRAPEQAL
Ephrin type-A receptor 2 (Homo sapiens), sequence (P29317 whole entry): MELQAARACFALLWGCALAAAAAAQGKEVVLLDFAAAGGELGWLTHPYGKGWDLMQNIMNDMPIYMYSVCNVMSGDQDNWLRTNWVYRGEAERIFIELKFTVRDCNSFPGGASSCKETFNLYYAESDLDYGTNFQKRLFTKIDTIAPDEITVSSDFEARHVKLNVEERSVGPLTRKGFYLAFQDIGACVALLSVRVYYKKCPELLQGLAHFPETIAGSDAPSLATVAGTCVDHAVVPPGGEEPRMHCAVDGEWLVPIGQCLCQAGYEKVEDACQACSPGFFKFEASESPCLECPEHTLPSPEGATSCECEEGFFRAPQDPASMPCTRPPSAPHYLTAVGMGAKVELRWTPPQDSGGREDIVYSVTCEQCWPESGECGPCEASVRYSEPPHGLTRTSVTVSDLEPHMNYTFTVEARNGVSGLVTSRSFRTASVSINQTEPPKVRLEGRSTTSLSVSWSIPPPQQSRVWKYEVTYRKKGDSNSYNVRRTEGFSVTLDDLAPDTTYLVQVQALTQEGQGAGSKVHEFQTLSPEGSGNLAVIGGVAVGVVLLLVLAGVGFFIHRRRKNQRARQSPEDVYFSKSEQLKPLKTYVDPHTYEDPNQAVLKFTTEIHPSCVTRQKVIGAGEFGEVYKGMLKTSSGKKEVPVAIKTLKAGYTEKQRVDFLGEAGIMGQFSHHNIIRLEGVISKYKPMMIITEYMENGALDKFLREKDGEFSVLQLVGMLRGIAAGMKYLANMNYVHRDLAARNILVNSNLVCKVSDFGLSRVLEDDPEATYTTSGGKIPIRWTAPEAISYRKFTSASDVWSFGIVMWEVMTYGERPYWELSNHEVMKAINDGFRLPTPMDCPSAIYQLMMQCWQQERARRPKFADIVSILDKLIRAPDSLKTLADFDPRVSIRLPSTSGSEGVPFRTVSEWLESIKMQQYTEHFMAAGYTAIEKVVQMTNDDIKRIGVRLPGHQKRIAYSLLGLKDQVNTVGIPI
Proto-oncogene tyrosine-protein kinase receptor Ret (Homo sapiens), sequence (P07949 whole entry): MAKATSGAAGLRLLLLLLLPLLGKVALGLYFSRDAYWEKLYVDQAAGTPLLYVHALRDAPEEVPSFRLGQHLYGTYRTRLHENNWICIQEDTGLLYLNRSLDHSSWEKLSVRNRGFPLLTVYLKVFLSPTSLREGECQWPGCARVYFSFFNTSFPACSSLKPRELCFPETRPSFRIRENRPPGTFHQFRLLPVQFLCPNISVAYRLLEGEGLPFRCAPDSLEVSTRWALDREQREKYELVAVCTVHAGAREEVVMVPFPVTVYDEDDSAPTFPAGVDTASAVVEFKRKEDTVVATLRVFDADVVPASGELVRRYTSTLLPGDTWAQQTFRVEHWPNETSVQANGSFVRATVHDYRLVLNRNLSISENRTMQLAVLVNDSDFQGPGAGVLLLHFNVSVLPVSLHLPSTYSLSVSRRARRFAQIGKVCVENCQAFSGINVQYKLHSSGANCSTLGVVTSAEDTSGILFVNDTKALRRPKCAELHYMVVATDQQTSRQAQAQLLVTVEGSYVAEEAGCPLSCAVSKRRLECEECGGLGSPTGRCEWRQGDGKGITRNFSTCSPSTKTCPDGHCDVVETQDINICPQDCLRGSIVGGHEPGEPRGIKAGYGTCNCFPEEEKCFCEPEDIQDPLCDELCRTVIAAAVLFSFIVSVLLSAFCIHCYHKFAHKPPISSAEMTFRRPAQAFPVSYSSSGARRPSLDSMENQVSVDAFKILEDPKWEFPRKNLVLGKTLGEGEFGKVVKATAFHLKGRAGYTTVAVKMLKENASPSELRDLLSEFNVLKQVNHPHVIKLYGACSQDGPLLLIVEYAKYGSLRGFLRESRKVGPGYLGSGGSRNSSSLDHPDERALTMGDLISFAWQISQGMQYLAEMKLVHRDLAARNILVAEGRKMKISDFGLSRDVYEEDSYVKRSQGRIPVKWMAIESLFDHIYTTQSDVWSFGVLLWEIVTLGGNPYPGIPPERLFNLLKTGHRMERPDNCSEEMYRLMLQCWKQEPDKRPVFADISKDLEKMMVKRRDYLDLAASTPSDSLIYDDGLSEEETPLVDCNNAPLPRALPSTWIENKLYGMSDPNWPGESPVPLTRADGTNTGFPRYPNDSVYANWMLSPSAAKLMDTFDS
5-hydroxytryptamine receptor 5A (Homo sapiens), sequence (P47898 whole entry): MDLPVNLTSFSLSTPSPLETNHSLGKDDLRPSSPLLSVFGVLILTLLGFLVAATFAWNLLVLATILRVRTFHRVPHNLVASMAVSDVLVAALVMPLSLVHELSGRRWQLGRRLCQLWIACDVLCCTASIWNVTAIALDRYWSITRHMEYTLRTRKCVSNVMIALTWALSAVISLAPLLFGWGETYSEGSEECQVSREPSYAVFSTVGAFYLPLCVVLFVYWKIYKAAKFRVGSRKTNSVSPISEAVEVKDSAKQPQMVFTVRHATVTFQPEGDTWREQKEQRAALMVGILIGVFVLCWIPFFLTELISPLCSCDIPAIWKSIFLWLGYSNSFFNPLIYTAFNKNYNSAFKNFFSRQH
Alpha-2B adrenergic receptor (Homo sapiens), sequence (P18089 whole entry): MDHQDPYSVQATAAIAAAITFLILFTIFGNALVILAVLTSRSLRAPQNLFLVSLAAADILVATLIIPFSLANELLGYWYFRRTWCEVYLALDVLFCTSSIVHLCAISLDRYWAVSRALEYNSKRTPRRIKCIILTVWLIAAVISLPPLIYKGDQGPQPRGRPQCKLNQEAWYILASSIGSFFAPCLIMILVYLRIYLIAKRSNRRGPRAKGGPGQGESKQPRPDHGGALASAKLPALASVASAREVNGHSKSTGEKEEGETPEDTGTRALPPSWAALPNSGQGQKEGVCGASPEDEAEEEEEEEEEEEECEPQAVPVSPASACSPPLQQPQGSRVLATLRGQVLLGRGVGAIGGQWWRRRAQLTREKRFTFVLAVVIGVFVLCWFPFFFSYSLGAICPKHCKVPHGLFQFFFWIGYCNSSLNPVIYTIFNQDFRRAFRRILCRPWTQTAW
Alpha-2B adrenergic receptor, sequence (P18089 whole entry): as above
Sigma intracellular receptor 2, sequence (Q5BJF2 whole entry): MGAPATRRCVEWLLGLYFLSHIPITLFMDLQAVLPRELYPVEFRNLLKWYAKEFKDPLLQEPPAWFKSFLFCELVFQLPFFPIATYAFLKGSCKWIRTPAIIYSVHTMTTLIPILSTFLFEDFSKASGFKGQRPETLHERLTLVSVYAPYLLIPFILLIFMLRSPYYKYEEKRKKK

Molecule `COc1nc2ccc([C@@](O)(c3ccccc3)C3CCN(C(C)=O)CC3)cc2c(Cl)c1Cc1ccc(-n2cccn2)cc1` [JNJ-54119936] has an inhibition [1] of 12%, an inhibition [2] of -2% and an inhibition ([3]; Compound concentration 1.0 uM) of 21%. For the same molecule, the inhibition ([3]; Compound concentration 10.0 uM) was 19%, the inhibition [4] was 8.8% and the inhibition [5] was 3%. It also gave an inhibition [6] of -5%, an inhibition [7] of 25.6% and an IC50 [8] of about 5 µM. It also gave an inhibition [9] of 17%, an inhibition [10] of 0% and an inhibition [11] of 13%. For the same molecule, the inhibition [12] was 10.3%, the inhibition [13] was 1.16% and the inhibition [14] was -4%. It also gave an inhibition [15] of -0.46%, an inhibition [16] of 3% and an inhibition [17] of -4%. For the same molecule, the inhibition [18] was 9%, the inhibition [19] was 2% and the inhibition [20] was 21.7%. For the same molecule, the Ki [21] was 9.22 µM, the qKD [22] was over 75 µM and the inhibition [23] was 10%. It also gave an inhibition [24] of 54.6%, an inhibition [25] of 6% and an inhibition [26] of 65.8%. The inhibition [27] was 10%, the inhibition ([28]; Compound concentration 1.0 uM) was 21% and the inhibition ([28]; Compound concentration 10.0 uM) was 44%. For the same molecule, the inhibition [29] was 4%, the inhibition ([30]; Compound concentration 0.3 uM) was -3.53% and the inhibition ([30]; Compound concentration 1.0 uM) was -5.27%. It also gave an inhibition ([30]; Compound concentration 3.0 uM) of 0.29% and an inhibition [31] of 4%.
